Results: patent US8278441B2, “BACE inhibitors” (Eli Lilly and Company, priority 2009, dated 2012)
Where a name gives a salt, the structure may show the parent alone. Read-outs that look alike come from different tables or passages of the source.

Tests used:
[1] = molecular target: T1, native, endogenous murine BACE1 in PDAPP primary cortical neurons (Mus musculus, UniProt P56818); test: PDAPP primary neuronal assay (Abeta ELISA); format: cell-based; settings: primary cortical neurons from PDAPP embryos, 24 h
T1 construct: endogenous in cells; host or cells: primary cortical neurons from Embryonic Day 16 PDAPP transgenic mouse embryos

[2] = molecular target: T2, native endogenous human BACE1 in HEK293/APP751sw cells (Homo sapiens, UniProt P56817); test: HEK293Swe whole cell assay (Abeta ELISA); format: cell-based
T2 construct: endogenous in cells; host or cells: HEK293p (ATCC CRL-1573) stably expressing APP751sw

[3] = molecular target: T3, human BACE1(1-460):Fc (Homo sapiens, UniProt P56817); test: BACE1 FRET assay; format: biochemical; settings: purified recombinant human BACE1(1-460):Fc, FRET substrate, pH 4.6
T3 construct: made in house; host or cells: HEK293 cells, transient transfection; purified from conditioned media by Protein A chromatography

[4] = test system: beta-secretase; test: In vivo inhibition of beta-secretase in PDAPP mice; settings: 3 hours; for Abeta 1-x peptide level reduction in brain cortex / C99 level reduction in brain cortex / sAPPb level reduction in brain cortex: young female PDAPP mice, vs vehicle-treated mice
From the text: Several animal models, including mouse, guinea pig, dog, and monkey, may be used to screen for inhibition of beta-secretase activity in vivo following compound treatment. Animals used in this invention can be wild type, transgenic, or gene knockout animals. For example, the PDAPP mouse model, prepared as described in Games et al., Nature 373, 523-527 (1995), and other non-transgenic or gene knockout animals are useful to analyze in vivo inhibition of Abeta and sAPPbeta production in the presence of inhibitory compounds. Generally, 2 to 12 month old PDAPP mice, gene knockout mice or non-transgenic animals are administered compound formulated in vehicles, such as corn oil, cyclodextran, phosphate buffers, PHARMASOLVE®, or other suitable vehicles. One to twenty-four hours following the administration of compound, animals are sacrificed, and brains as well as cerebrospinal fluid and plasma are removed for analysis of Abetas, C99, and sAPP fragments. (See Dovey, et al., Journal of Neurochemistry, 76, 173-181 (2001); and Johnson-Wood, et al., Proc. Natl. Acad. Sci. USA, 94, 1550-1555 (1997)).
For standard in vivo pharmacology studies, animals are dosed with various concentrations of compound and compared to a vehicle-treated control group dosed at the same time. For some time course studies, brain tissue, plasma, or cerebrospinal fluid is obtained from selected animals, beginning at time 0 to establish a baseline. Compound is administered to other groups and sacrificed at various times after dosing. Brain tissue, plasma, or cerebrospinal fluid is obtained from selected animals and analyzed for the presence of APP cleavage products, including Abeta peptides, sAPPbeta, and other APP fragments, for example, by specific sandwich ELISA assays. At the end of the test period, animals are sacrificed and brain tissues, plasma, or cerebrospinal fluid are analyzed for the presence of Abeta peptides, C99, and sAPPbeta, as appropriate. Brain tissues of APP transgenic animals are also analyzed for the amount of beta-amyloid plaques following compound treatment.

[5] = Abeta 1-40, read-out: PDAPP Neuron A-beta (1-40) ELISA IC50
[6] = Abeta 1-42, read-out: PDAPP Neuron A-beta (1-42) ELISA IC50
[7] = Abeta 1-40 in conditioned media, read-out: HEK 293 Swe A-beta (1-40) ELISA IC50
[8] = Abeta 1-42 in conditioned media, read-out: HEK 293 Swe A-beta (1-42) ELISA IC50

T1 sequence (P56818 46-501): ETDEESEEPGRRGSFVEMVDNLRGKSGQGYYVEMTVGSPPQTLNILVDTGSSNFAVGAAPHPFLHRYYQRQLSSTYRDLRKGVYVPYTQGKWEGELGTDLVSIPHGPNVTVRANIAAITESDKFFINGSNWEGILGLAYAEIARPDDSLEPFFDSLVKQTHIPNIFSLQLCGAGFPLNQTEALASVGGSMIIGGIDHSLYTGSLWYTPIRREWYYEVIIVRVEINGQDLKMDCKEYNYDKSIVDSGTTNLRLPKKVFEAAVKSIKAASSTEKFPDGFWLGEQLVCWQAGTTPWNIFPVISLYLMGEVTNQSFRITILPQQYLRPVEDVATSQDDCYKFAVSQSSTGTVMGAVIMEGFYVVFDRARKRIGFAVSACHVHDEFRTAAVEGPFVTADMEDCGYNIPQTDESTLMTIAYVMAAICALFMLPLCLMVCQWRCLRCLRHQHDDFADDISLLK
T3 sequence (P56817 22-460): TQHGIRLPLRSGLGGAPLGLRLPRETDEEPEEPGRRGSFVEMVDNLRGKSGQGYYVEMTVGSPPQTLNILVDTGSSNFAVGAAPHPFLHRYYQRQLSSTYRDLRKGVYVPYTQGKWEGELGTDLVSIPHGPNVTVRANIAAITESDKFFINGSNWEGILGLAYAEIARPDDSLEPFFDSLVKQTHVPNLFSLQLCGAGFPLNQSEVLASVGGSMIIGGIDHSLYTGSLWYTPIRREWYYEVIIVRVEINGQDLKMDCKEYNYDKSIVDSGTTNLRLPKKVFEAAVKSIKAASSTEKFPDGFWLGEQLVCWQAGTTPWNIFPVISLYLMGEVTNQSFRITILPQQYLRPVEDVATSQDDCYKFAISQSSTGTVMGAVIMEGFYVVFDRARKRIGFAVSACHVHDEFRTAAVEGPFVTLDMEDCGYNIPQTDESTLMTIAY
T2 sequence (P56817 46-501): as the sequence (P56818 46-501) above, with S6P, I162V, I165L, T180S, A182V, V340I, A393L, H443Q counted along it

| IC50 [1, 5] [nM] | IC50 [1, 6] [nM] | IC50 [2, 7] [nM] | IC50 [2, 8] [nM] | IC50 [3] [nM] | Structure (SMILES) | CSF Abeta 1-42 level reduction ([4]; CSF, 10 mg/kg oral) | CSF Abeta 1-x level reduction ([4]; CSF, 10 mg/kg oral) | CSF sAPPalpha levels ([4]; CSF, 10 mg/kg oral) | CSF sAPPbeta level reduction ([4]; CSF, 10 mg/kg oral) [%] | Abeta 1-x peptide level reduction in brain cortex ([4]; 10 mg/kg oral) | C99 level reduction in brain cortex ([4]; 10 mg/kg oral) [%] | sAPPb level reduction in brain cortex ([4]; 10 mg/kg oral) [%] | Abeta 1-x peptide level reduction in brain cortex ([4]; 10 mg/kg subcutaneous) | C99 level reduction in brain cortex ([4]; 10 mg/kg subcutaneous) [%] | sAPPb level reduction in brain cortex ([4]; 10 mg/kg subcutaneous) [%] |
| --- | --- | --- | --- | --- | --- | --- | --- | --- | --- | --- | --- | --- | --- | --- | --- |
| 436 | 352 | 670 | 173 | 346 | NC1=N[C@@]2(c3cccc(-c4cncnc4)c3)C[C@H](O)C[C@H]2CS1 (racemic) [Example 32, Racemic (4aRS,6RS,7aSR)-2-Amino-7a-(3-(pyrimidin-5-yl)phenyl)-4,4a,5,6,7,7a-hexahydrocyclopenta[d][1,3]thiazin-6-ol dihydrochloride] | – | – | – | – | – | – | – | – | – | – |
| – | – | – | – | – | Cl.NC1=N[C@@]2(c3cc(NC(=O)c4ccc(F)cn4)ccc3F)COC[C@H]2CS1 [Example 1, N-(3-((4aS,7aS)-2-Amino-4a,5,7,7a-tetrahydro-4H-furo[3,4-d][1,3]thiazin-7a-yl)-4-fluorophenyl)-5-fluoropicolinamide hydrochloride] | approximately 62% | approximately 62% | unchanged | 22 | approximately 54% | ~34 | ~42 | approximately 64% | ~60 | ~44 |
| 32.8 | 41.3 | 78 | 89.6 | 179 | NC1=N[C@@]2(c3cc(NC(=O)c4nccs4)ccc3F)CCOC[C@H]2CS1 [Example 8, N-(3-((8aS)-2-Amino-4,4a,5,7,8,8a-hexahydropyrano[4,3-d][1,3]thiazin-8a-yl)-4-fluorophenyl)thiazole-2-carboxamide hydrochloride] | – | – | – | – | – | – | – | – | – | – |
| 734 | 659 | 1360 | 1150 | 731 | NC1=N[C@@]2(c3cccc(-c4cncnc4)c3)CCCC[C@H]2CS1 [Example 25, (8aS)-8a-(3-(Pyrimidin-5-yl)phenyl)-4a,5,6,7,8,8a-hexahydro-4H-benzo[d][1,3]thiazin-2-amine dihydrochloride] | – | – | – | – | – | – | – | – | – | – |
